Measured values reported in the NIST ThermoML archive (doi:10.1016/j.jct.2015.08.013).
± gives the expanded uncertainty stated by the source.

Assay: xn = mol fraction of the nth substance listed
Settings: 100 kPa, Liquid; for mass density: Vibrating tube method; for viscosity: Capillary tube (Ostwald / Ubbelohde) method

CC1COC(=O)O1 (centres undefined) [4-methyl-1,3-dioxolan-2-one] + CN1CCCC1=O
Settings	mass density [kg/m3]	viscosity [mPa·s]
293.15 K, x2 = 0	1204.81 ± 1.6	–
293.15 K, x2 = 0.0523	1194.07 ± 1.7	–
293.15 K, x2 = 0.1021	1184.1 ± 1.7	–
293.15 K, x2 = 0.1995	1165.18 ± 1.6	–
293.15 K, x2 = 0.2987	1146.67 ± 1.6	–
293.15 K, x2 = 0.4003	1128.44 ± 1.6	–
293.15 K, x2 = 0.5164	1108.38 ± 1.6	–
293.15 K, x2 = 0.6011	1094.3 ± 1.6	–
293.15 K, x2 = 0.6989	1078.57 ± 1.6	–
293.15 K, x2 = 0.7989	1062.97 ± 1.6	–
293.15 K, x2 = 0.9003	1047.58 ± 1.6	–
293.15 K, x2 = 0.9506	1040.04 ± 1.6	–
298.15 K, x2 = 0	1199.02 ± 1.6	2.52 ± 0.052
298.15 K, x2 = 0.0523	1188.38 ± 1.7	–
298.15 K, x2 = 0.1021	1178.51 ± 1.6	–
298.15 K, x2 = 0.114	–	2.391 ± 0.05
298.15 K, x2 = 0.1995	1159.73 ± 1.6	–
298.15 K, x2 = 0.2013	–	2.294 ± 0.048
298.15 K, x2 = 0.2987	1141.4 ± 1.6	–
298.15 K, x2 = 0.3347	–	2.158 ± 0.045
298.15 K, x2 = 0.389	–	2.103 ± 0.044
298.15 K, x2 = 0.4003	1123.3 ± 1.6	–
298.15 K, x2 = 0.5	–	2.003 ± 0.042
298.15 K, x2 = 0.5164	1103.36 ± 1.6	–
298.15 K, x2 = 0.597	–	1.926 ± 0.041
298.15 K, x2 = 0.6011	1089.39 ± 1.6	–
298.15 K, x2 = 0.6989	1073.78 ± 1.6	–
298.15 K, x2 = 0.709	–	1.845 ± 0.039
298.15 K, x2 = 0.7891	–	1.796 ± 0.038
298.15 K, x2 = 0.7989	1058.3 ± 1.6	–
298.15 K, x2 = 0.8985	–	1.732 ± 0.037
298.15 K, x2 = 0.9003	1043 ± 1.6	–
298.15 K, x2 = 0.9506	1035.5 ± 1.6	–
303.15 K, x2 = 0	1194 ± 1.6	2.27 ± 0.047
303.15 K, x2 = 0.0523	1183.42 ± 1.7	–
303.15 K, x2 = 0.1021	1173.58 ± 1.6	–
303.15 K, x2 = 0.114	–	2.157 ± 0.045
303.15 K, x2 = 0.1995	1154.87 ± 1.6	–
303.15 K, x2 = 0.2013	–	2.076 ± 0.043
303.15 K, x2 = 0.2987	1136.58 ± 1.6	–
303.15 K, x2 = 0.3347	–	1.957 ± 0.041
303.15 K, x2 = 0.389	–	1.908 ± 0.04
303.15 K, x2 = 0.4003	1118.52 ± 1.6	–
303.15 K, x2 = 0.5	–	1.821 ± 0.038
303.15 K, x2 = 0.5164	1098.63 ± 1.6	–
303.15 K, x2 = 0.597	–	1.754 ± 0.037
303.15 K, x2 = 0.6011	1084.68 ± 1.6	–
303.15 K, x2 = 0.6989	1069.12 ± 1.6	–
303.15 K, x2 = 0.709	–	1.685 ± 0.036
303.15 K, x2 = 0.7891	–	1.641 ± 0.035
303.15 K, x2 = 0.7989	1053.68 ± 1.6	–
303.15 K, x2 = 0.8985	–	1.585 ± 0.034
303.15 K, x2 = 0.9003	1038.41 ± 1.6	–
303.15 K, x2 = 0.9506	1030.92 ± 1.6	–
308.15 K, x2 = 0	1188.57 ± 1.6	2.08 ± 0.043
308.15 K, x2 = 0.0523	1178.1 ± 1.6	–
308.15 K, x2 = 0.1021	1168.35 ± 1.6	–
308.15 K, x2 = 0.114	–	1.988 ± 0.042
308.15 K, x2 = 0.1995	1149.78 ± 1.6	–
308.15 K, x2 = 0.2013	–	1.916 ± 0.04
308.15 K, x2 = 0.2987	1131.63 ± 1.6	–
308.15 K, x2 = 0.3347	–	1.81 ± 0.038
308.15 K, x2 = 0.389	–	1.767 ± 0.037
308.15 K, x2 = 0.4003	1113.71 ± 1.6	–
308.15 K, x2 = 0.5	–	1.688 ± 0.036
308.15 K, x2 = 0.5164	1093.99 ± 1.6	–
308.15 K, x2 = 0.597	–	1.628 ± 0.034
308.15 K, x2 = 0.6011	1080.16 ± 1.6	–
308.15 K, x2 = 0.6989	1064.71 ± 1.6	–
308.15 K, x2 = 0.709	–	1.568 ± 0.033
308.15 K, x2 = 0.7891	–	1.527 ± 0.032
308.15 K, x2 = 0.7989	1049.38 ± 1.6	–
308.15 K, x2 = 0.8985	–	1.475 ± 0.031
308.15 K, x2 = 0.9003	1034.2 ± 1.6	–
308.15 K, x2 = 0.9506	1026.76 ± 1.6	–
313.15 K, x2 = 0	1183.11 ± 1.6	1.91 ± 0.04
313.15 K, x2 = 0.0523	1172.69 ± 1.6	–
313.15 K, x2 = 0.1021	1162.99 ± 1.6	–
313.15 K, x2 = 0.114	–	1.828 ± 0.038
313.15 K, x2 = 0.1995	1144.5 ± 1.6	–
313.15 K, x2 = 0.2013	–	1.765 ± 0.037
313.15 K, x2 = 0.2987	1126.42 ± 1.6	–
313.15 K, x2 = 0.3347	–	1.673 ± 0.035
313.15 K, x2 = 0.389	–	1.636 ± 0.034
313.15 K, x2 = 0.4003	1108.58 ± 1.6	–
313.15 K, x2 = 0.5	–	1.568 ± 0.033
313.15 K, x2 = 0.5164	1088.95 ± 1.6	–
313.15 K, x2 = 0.597	–	1.516 ± 0.032
313.15 K, x2 = 0.6011	1075.18 ± 1.6	–
313.15 K, x2 = 0.6989	1059.78 ± 1.6	–
313.15 K, x2 = 0.709	–	1.461 ± 0.031
313.15 K, x2 = 0.7891	–	1.426 ± 0.03
313.15 K, x2 = 0.7989	1044.52 ± 1.6	–
313.15 K, x2 = 0.8985	–	1.379 ± 0.029
313.15 K, x2 = 0.9003	1029.43 ± 1.6	–
313.15 K, x2 = 0.9506	1022.03 ± 1.6	–
318.15 K, x2 = 0	1177.55 ± 1.6	1.75 ± 0.036
318.15 K, x2 = 0.0523	1167.21 ± 1.6	–
318.15 K, x2 = 0.1021	1157.58 ± 1.6	–
318.15 K, x2 = 0.114	–	1.682 ± 0.035
318.15 K, x2 = 0.1995	1139.21 ± 1.6	–
318.15 K, x2 = 0.2013	–	1.627 ± 0.034
318.15 K, x2 = 0.2987	1121.25 ± 1.6	–
318.15 K, x2 = 0.3347	–	1.545 ± 0.032
318.15 K, x2 = 0.389	–	1.513 ± 0.032
318.15 K, x2 = 0.4003	1103.52 ± 1.6	–
318.15 K, x2 = 0.5	–	1.453 ± 0.031
318.15 K, x2 = 0.5164	1084 ± 1.6	–
318.15 K, x2 = 0.597	–	1.407 ± 0.03
318.15 K, x2 = 0.6011	1070.31 ± 1.6	–
318.15 K, x2 = 0.6989	1054.99 ± 1.6	–
318.15 K, x2 = 0.709	–	1.359 ± 0.029
318.15 K, x2 = 0.7891	–	1.328 ± 0.028
318.15 K, x2 = 0.7989	1039.81 ± 1.6	–
318.15 K, x2 = 0.8985	–	1.286 ± 0.027
318.15 K, x2 = 0.9003	1024.81 ± 1.6	–
318.15 K, x2 = 0.9506	1017.45 ± 1.6	–
323.15 K, x2 = 0	1171.96 ± 1.6	1.62 ± 0.034
323.15 K, x2 = 0.0523	1161.72 ± 1.6	–
323.15 K, x2 = 0.1021	1152.17 ± 1.6	–
323.15 K, x2 = 0.114	–	1.56 ± 0.033
323.15 K, x2 = 0.1995	1133.96 ± 1.6	–
323.15 K, x2 = 0.2013	–	1.513 ± 0.032
323.15 K, x2 = 0.2987	1116.14 ± 1.6	–
323.15 K, x2 = 0.3347	–	1.443 ± 0.03
323.15 K, x2 = 0.389	–	1.414 ± 0.03
323.15 K, x2 = 0.4003	1098.55 ± 1.6	–
323.15 K, x2 = 0.5	–	1.361 ± 0.029
323.15 K, x2 = 0.5164	1079.17 ± 1.6	–
323.15 K, x2 = 0.597	–	1.32 ± 0.028
323.15 K, x2 = 0.6011	1065.56 ± 1.6	–
323.15 K, x2 = 0.6989	1050.38 ± 1.6	–
323.15 K, x2 = 0.709	–	1.278 ± 0.027
323.15 K, x2 = 0.7891	–	1.25 ± 0.027
323.15 K, x2 = 0.7989	1035.3 ± 1.6	–
323.15 K, x2 = 0.8985	–	1.213 ± 0.026
323.15 K, x2 = 0.9003	1020.41 ± 1.6	–
323.15 K, x2 = 0.9506	1013.09 ± 1.6	–
